Laboratory results published in patent US9538749B2, “Methods for increasing oil palm yield” (Valent BioSciences Corporation, priority 2014, dated 2017).
Values joined by “and” are separate entries in the source; they are usually repeats but may differ in a detail not shown here. Equal values may be shown once.

Columns and labels:
oil palm fruit [1] = details: preharvest application to attached bunches; cited from earlier work
oil palm fruit [2] = assay: Field study of fruit abscission (cumulative loose fruit and loose mass) after a single bunch-directed preharvest spray; assay type: in vivo, oil palm (cross between Compact and Ghana); details: for Cumulative Loose Mass / % Difference with UTC (Cumulative Loose Fruit) / % Difference with UTC (Cumulative Loose Mass) / Cumulative Loose Fruit: single spray 100 mL/bunch; for Cumulative Loose Mass / % Difference with UTC (Cumulative Loose Fruit) / % Difference with UTC (Cumulative Loose Mass): 14 days; for % Difference with UTC (Cumulative Loose Fruit) / % Difference with UTC (Cumulative Loose Mass): vs untreated control; for Cumulative Loose Fruit: counted for 14 days
Method: A study was conducted in a plantation in Costa Rica to compare the effects of single bunch-directed applications of: (1) untreated control (water sprayed); (2) AVG at 500 ppm (59.5 g) active ingredient (a.i.); (3) 20 ppm (2.4 g) a.i. of 1-MCP; (4) 67 ppm (8.0 g) a.i. of 1-MCP; and (5) 200 ppm (23.8 g) a.i. of 1-MCP. Total g a.i./ha for each treatment was calculated assuming 7 bunches per palm and 170 palms per ha. In this study, AVG and 1-MCP were provided in a formulation as AVG-HC1 and 1-MCP at concentrations of 20% and 1.3%, respectively.
For each treatment, 27 palms were randomly selected covering about 15 hectares. The variety of plants used was a cross between Compact and Ghana. The plants were three years old at the time of treatment. A CO2 sprayer was used to spray all treatments (100 mL/bunch) to bunches with 1 to 4 loose fruits. The time required to spray each bunch was about 8 seconds at 20 psi using a 2.0 full cone nozzle. The treatments were applied once per bunch. Four, six, four, three and ten bunches per treatment were sprayed on Feb. 6, 13, 20, 27 and Mar. 3, 2015, respectively.
Cumulative loose fruit (CLF) and cumulative loose mass (CLM) counts were determined on a daily basis for 14 days with the exception of days 2 and 9 after initial spray as measure to objectively quantify fruit abscission. An electronic balance was used to weigh all fruit. All loose fruit on the bunch, branches and on the ground was counted and weighted.

oil palm fruit [3] = details: postharvest application; cited from earlier work

Structure (SMILES) | Increase of oil content (oil palm fruit [1]) | Cumulative Loose Mass (oil palm fruit [2]; 20 ppm (2.4 g a.i./ha)) | % Difference with UTC (Cumulative Loose Fruit) (oil palm fruit [2]; 20 ppm (2.4 g a.i./ha)) | % Difference with UTC (Cumulative Loose Mass) (oil palm fruit [2]; 20 ppm (2.4 g a.i./ha)) | Cumulative Loose Fruit (oil palm fruit [2]; 20 ppm (2.4 g a.i./ha)) | Cumulative Loose Mass (oil palm fruit [2]; 67 ppm (8.0 g a.i./ha)) | % Difference with UTC (Cumulative Loose Fruit) (oil palm fruit [2]; 67 ppm (8.0 g a.i./ha)) | % Difference with UTC (Cumulative Loose Mass) (oil palm fruit [2]; 67 ppm (8.0 g a.i./ha)) | Cumulative Loose Fruit (oil palm fruit [2]; 67 ppm (8.0 g a.i./ha)) | Cumulative Loose Mass (oil palm fruit [2]; 200 ppm (23.8 g a.i./ha)) | % Difference with UTC (Cumulative Loose Fruit) (oil palm fruit [2]; 200 ppm (23.8 g a.i./ha)) | % Difference with UTC (Cumulative Loose Mass) (oil palm fruit [2]; 200 ppm (23.8 g a.i./ha)) | Cumulative Loose Fruit (oil palm fruit [2]; 200 ppm (23.8 g a.i./ha)) | Effect on oil palm fruit drop (oil palm fruit [2]; preharvest bunch spray, 20, 67 and 200 ppm) | Effect on oil content (oil palm fruit [3]) | Effect on ripening of oil palm fruit (oil palm fruit [3])
O=P(O)(O)CCCl [ethephon, 2-chloroethyl phosphonic acid] | 7% | – | – | – | – | – | – | – | – | – | – | – | – | – | – | –
CC1=CC1 [1-MCP, 1-methylcyclopropene] | – | 1465 g | 6.7% | 17.1% | 138.8 | 1163 g | 28.6% | 34.2% | 106.2 | 1149 g | 29.6% | 36.0% and 35.0% | 104.7 | delayed palm oil fruit drop | reduced oil content | delayed ripening
